Measured values reported in ChEMBL document CHEMBL1122718, “Benzylamines: synthesis and evaluation of antimycobacterial properties” (1984).

Tests used:
[1] = test system: Mycobacterium tuberculosis; experiment: Compounds were evaluated for the minimum inhibitory concentration (MIC) Mycobacterium tuberculosis H 37 Rv (INH resistant); type: functional
[2] = test system: Mycobacterium tuberculosis; experiment: Compounds were evaluated for the minimum inhibitory concentration (MIC) Mycobacterium tuberculosis H 37 Rv (thiosemicarbazone resistant); type: functional

SMILES: CCCCNCc1cccc(F)c1.Cl
- MIC [1]: 8 µg/mL
- MIC [2]: 32 µg/mL
